Laboratory results from patent US11551827B2, “Perfluorinated 1-alkoxypropenes in dielectric fluids and electrical devices” (priority 2017, dated 2023).

Test: Gaseous dielectric breakdown voltage measurement (Hipotronics OC60D-A dielectric strength tester)
Type: physicochemical
Conditions: for Dielectric breakdown voltage: gas, 0.1 inch (2.5 mm) gap, copper electrodes; for Performance as electrical insulator and interrupter (in words): judged from the dielectric breakdown voltage values in Tables 2 and 3
Protocol: The gaseous dielectric breakdown voltages of PE-1, PE-2, CE-1, CE-2, and CE-3 were measured experimentally using a Hipotronics OC60D-A dielectric strength tester (available from Hipotronics, Brewster, N.Y., USA), which was modified to allow measurements on low pressure gases. The electrode configuration consisted of two copper electrodes separated by a 0.1 inch (2.5 mm) gap housed in a gas tight PFTE (polytetrafluoroethylene) test chamber. The test chamber was first evacuated and then PE-1, PE-2, CE-1, CE-2, or CE-3 was charged to full vapor pressure and evacuated to the measured pressures indicated in Tables 2 and 3. The dielectric breakdown voltage (measured in kV) was measured after each evacuation to determine the dielectric strength and the results are summarized in Tables 2 and 3.

| SMILES | Dielectric breakdown voltage (pressure 13.9 kPa) | Dielectric breakdown voltage (pressure 27.6 kPa) | Dielectric breakdown voltage (pressure 41.4 kPa) | Dielectric breakdown voltage (pressure 55.2 kPa) | Dielectric breakdown voltage (pressure 69.0 kPa) | Dielectric breakdown voltage (pressure 82.8 kPa) | Dielectric breakdown voltage (pressure 110 kPa) | Dielectric breakdown voltage (pressure 124 kPa) | Dielectric breakdown voltage (pressure 139 kPa) | Dielectric breakdown voltage (pressure 20 kPa) | Dielectric breakdown voltage (pressure 40 kPa) | Dielectric breakdown voltage (pressure 60 kPa) | Performance as electrical insulator and interrupter (in words) | Dielectric breakdown voltage (pressure 80 kPa) | Dielectric breakdown voltage (pressure 100 kPa) | Dielectric breakdown voltage (pressure 120 kPa) | Dielectric breakdown voltage (pressure 140 kPa) |
| --- | --- | --- | --- | --- | --- | --- | --- | --- | --- | --- | --- | --- | --- | --- | --- | --- | --- |
| FS(F)(F)(F)(F)F [CE-2, Sulfur hexafluoride] | 4.6 kV | 5.4 kV | 7.8 kV | 9.5 kV | 10.9 kV | 12.5 kV | 15.3 kV | 16.7 kV | 18.0 kV | – | – | – | – | – | – | – | – |
| FC(OC(F)(F)C(F)(F)F)=C(F)C(F)(F)F [PE-1, 1,2,3,3,3-Pentafluoro-1-(Perfluoroethoxy)Prop-1-Ene] | – | – | – | – | – | – | – | – | – | 8.7 kV | 13.5 kV | 18.7 kV | excellent electrical insulators and interrupters | – | – | – | – |
| FC1(F)C(F)(F)C1(F)F [CE-3, Perfluorocyclopropane] | 4.6 kV | 6.4 kV | 8.0 kV | 9.5 kV | 10.6 kV | 12.0 kV | 14.7 kV | 16.0 kV | 17.1 kV | – | – | – | – | – | – | – | – |
| FC(OC(F)(F)F)=C(F)C(F)(F)F [PE-2, 1,2,3,3,3-Pentafluoro-1-(Perfluoromethoxy)Prop-1-Ene] | – | – | – | – | – | – | – | – | – | 8.8 kV | 10.9 kV | 15.6 kV | excellent electrical insulators and interrupters | 19.5 kV | 22.7 kV | 25.7 kV | 28.9 kV |
| FC(F)=C(F)C(F)(F)F [CE-1, Hexafluoropropene] | – | – | – | – | – | – | – | – | – | 8.8 kV | 9.8 kV | 11.5 kV | – | 13.9 kV | 16.3 kV | 18.4 kV | 20.1 kV |
